In brackets after ≈: the same amount, converted by molar mass. *1 amine or outer side, *2 acyl side, *3 side chain or, on linkers, in order; H or OH if unused. Where a SMILES comes first, the peptide text is derived from it. [ ]: non-standard residue; d: D form. The star is where a group is joined. X13 = C[C@H](CO[C@H](CC1CC2(CCC2)C1)[C@@H](C)C(=O)[*:2])N[*:1]; X2 = CCCCCC[C@@H](OC[C@@H](C)N[*:1])[C@@H](C)C(=O)[*:2]; Cyclobutyl(trans-3-NH2) = N[C@H]1C[C@H](*)C1; Gly(cHept) = N[C@H](C(=O)O)C1CCCCCC1; NMeL = CN[C@@H](CC(C)C)C(=O)O; Chg = N[C@H](C(=O)O)C1CCCCC1; NMeNva = CCC[C@H](NC)C(=O)O; X8 = NC[C@H]1C[C@H](*)C1; Dap = NC[C@H](N)C(=O)O; X20 = C1NCC1C*; X7 = NCC(O)C*
Tested on: Escherichia coli (E. coli) strain CFT073 ATCC 700928
Type: cell-based
Conditions: ATCC 700928, 22 h
Summary of the method: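 Broth microdilution MIC per CLSI M07-A8 in cation-adjusted Mueller Hinton II broth with 0.002% Tween-80. Ten-point 2-fold series topped at 64, 4, 0.5 or 0.13 μg/mL depending on protocol. Final inoculum OD600 0.0005, incubated 22 h at 35 °C.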

SMILES	MIC [µM]
CCCCCC[C@H]1OC[C@@H](C)NC(=O)[C@H](CO[C@H]2C[C@H](CN)C2)NC(=O)[C@H](CN)NC(=O)[C@H](C2CCCCCC2)NC(=O)[C@H](CCC)N(C)C(=O)[C@@H]1C [Example 168, (3R,6S,9S,12S,15S,18R,19R)-9-(Aminomethyl)-6-(((1r,3S)-3-(aminomethyl)cyclobutoxy)methyl)-12-cycloheptyl-19-hexyl-3,16,18-trimethyl-15-propyl-1-oxa-4,7,10,13,16-pentaazacyclononadecane-5,8,11,14,17-pentaone] (cyclo([Dap]S(X8)[X2][NMeNva][Gly(cHept)]))	3.1 (≈ 2.33 µg/mL)
CCC[C@H]1C(=O)N[C@@H](C2CCCCCC2)C(=O)N[C@@H](CN)C(=O)N[C@@H](COCC2CNC2)C(=O)N[C@H](C)CO[C@H](CC2CC3(CCC3)C2)[C@@H](C)C(=O)N1C [Example 171, (3R,6S,9S,12S,15S,18R,19R)-9-(Aminomethyl)-6-((azetidin-3-ylmethoxy)methyl)-12-cycloheptyl-3,16,18-trimethyl-15-propyl-19-(spiro[3.3]heptan-2-ylmethyl)-1-oxa-4,7,10,13,16-pentaazacyclononadecane-5,8,11,14,17-pentaone] (cyclo([Dap]S(X20)[X13][NMeNva][Gly(cHept)]))	6.3 (≈ 4.79 µg/mL)
CCC[C@H]1C(=O)N[C@@H](C2CCCCC2)C(=O)N[C@@H](CN)C(=O)N[C@@H](CO[C@H]2C[C@H](N)C2)C(=O)N[C@H](C)CO[C@H](CC2CC3(CCC3)C2)[C@@H](C)C(=O)N1C [Example 172, (3R,6S,9S,12S,15S,18R,19R)-6-(((1r,3S)-3-Aminocyclobutoxy)methyl)-9-(aminomethyl)-12-cyclohexyl-3,16,18-trimethyl-15-propyl-19-(spiro[3.3]heptan-2-ylmethyl)-1-oxa-4,7,10,13,16-pentaazacyclononadecane-5,8,11,14,17-pentaone] (cyclo([Chg][Dap]S(Cyclobutyl(trans-3-NH2))[X13][NMeNva]))	4.4 (≈ 3.28 µg/mL)

Further lines, results first:

MIC [µM]	SMILES
6.3 (≈ 4.56 µg/mL)	CCCCCC[C@H]1OC[C@@H](C)NC(=O)[C@H](CNCCO)NC(=O)[C@H](CN)NC(=O)[C@H](C2CCCCCC2)NC(=O)[C@H](CC(C)C)N(C)C(=O)[C@@H]1C [Example 169, (3R,6S,9S,12S,15S,18R,19R)-9-(Aminomethyl)-12-cycloheptyl-19-hexyl-6-(((2-hydroxyethyl)amino)methyl)-15-isobutyl-3,16,18-trimethyl-1-oxa-4,7,10,13,16-pentaazacyclononadecane-5,8,11,14,17-pentaone]
12 (≈ 8.88 µg/mL)	CCCCCC[C@H]1OC[C@@H](C)NC(=O)[C@H](COCC(O)CN)NC(=O)[C@H](CN)NC(=O)[C@H](C2CCCCC2)NC(=O)[C@H](CC(C)C)N(C)C(=O)[C@@H]1C (stereo partly drawn) [Example 173, (3R,6S,9S,12S,15S,18R,19R)-6-((3-Amino-2-hydroxypropoxy)methyl)-9-(aminomethyl)-12-cyclohexyl-19-hexyl-15-isobutyl-3,16,18-trimethyl-1-oxa-4,7,10,13,16-pentaazacyclononadecane-5,8,11,14,17-pentaone] (cyclo([Chg][Dap]S(X7)[X2][NMeL]))
1.6 (≈ 1.26 µg/mL)	CCCCCC[C@H]1OC[C@@H](C)NC(=O)[C@H](COc2ccc(CCN)cc2)NC(=O)[C@H](CN)NC(=O)[C@H](C2CCCCC2)NC(=O)[C@H](CC(C)C)N(C)C(=O)[C@@H]1C [Example 174, (3R,6S,9S,12S,15S,18R,19R)-6-((4-(2-Aminoethyl)phenoxy)methyl)-9-(aminomethyl)-12-cyclohexyl-19-hexyl-15-isobutyl-3,16,18-trimethyl-1-oxa-4,7,10,13,16-pentaazacyclononadecane-5,8,11,14,17-pentaone]
